Columns and labels:
Assay type in all cases: biochemical
[1] = target: T1, ALK(L1196M) (Homo sapiens, UniProt Q9UM73, L1196M); test: mobility shift assay
T1 construct: purchased Carna Biosciences

[2] = target: T2, FGFR3(K650M) (Homo sapiens, UniProt P22607, K650M); test: mobility shift assay
T2 construct: purchased Carna Biosciences

[3] = target: T3, ARG (Homo sapiens, UniProt P42684); test: mobility shift assay
T3 construct: purchased Carna Biosciences

[4] = target: T4, PDHK4 (Homo sapiens, UniProt Q16654); test: mobility shift assay
T4 construct: purchased Carna Biosciences

[5] = target: T5, MARK1 (Homo sapiens, UniProt Q9P0L2); test: mobility shift assay
T5 construct: purchased Carna Biosciences

[6] = target: T6, SRPK2 (Homo sapiens, UniProt P78362); test: mobility shift assay
T6 construct: purchased Carna Biosciences

[7] = target: T7, IKKα (Homo sapiens, UniProt O15111); test: IMAP Assay
T7 construct: purchased Carna Biosciences

[8] = target: T8, CK2α1/β (Homo sapiens, UniProt P68400); test: mobility shift assay
T8 construct: purchased Carna Biosciences

[9] = target: T9, DLK_Cascade (Homo sapiens, UniProt Q12852); test: mobility shift assay
T9 construct: purchased Carna Biosciences

[10] = target: T10, PKR (Homo sapiens, UniProt P19525); test: IMAP Assay
T10 construct: purchased Carna Biosciences

[11] = target: T11, PYK2 (Homo sapiens, UniProt Q14289); test: mobility shift assay
T11 construct: purchased Carna Biosciences

[12] = target: T12, Erk1 (Homo sapiens, UniProt P27361); test: mobility shift assay
T12 construct: purchased Carna Biosciences

[13] = target: T13, MST3 (Homo sapiens, UniProt Q9Y6E0); test: mobility shift assay
T13 construct: purchased Carna Biosciences

[14] = target: T14, MARK4 (Homo sapiens, UniProt Q96L34); test: mobility shift assay
T14 construct: purchased Carna Biosciences

[15] = target: T15, CHK2 (Homo sapiens, UniProt O96017); test: mobility shift assay
T15 construct: purchased Carna Biosciences

[16] = target: T16, TYRO3 (Homo sapiens, UniProt Q06418); test: mobility shift assay
T16 construct: purchased Carna Biosciences

[17] = target: T17, AurB (Homo sapiens, UniProt Q96GD4); test: mobility shift assay
T17 construct: purchased Carna Biosciences

[18] = target: T18, EPHB4 (Homo sapiens, UniProt P54760); test: mobility shift assay
T18 construct: purchased Carna Biosciences

[19] = target: T19, MAP4K2 (Homo sapiens, UniProt Q12851); test: mobility shift assay
T19 construct: purchased Carna Biosciences

[20] = target: T20, BRSK2 (Homo sapiens, UniProt Q8IWQ3); test: mobility shift assay
T20 construct: purchased Carna Biosciences

[21] = target: T21, SGK (Homo sapiens, UniProt O00141); test: mobility shift assay
T21 construct: purchased Carna Biosciences

[22] = target: T22, BLK (Homo sapiens, UniProt P51451); test: mobility shift assay
T22 construct: purchased Carna Biosciences

[23] = system: ABL(E265K); test: mobility shift assay; conditions: 10 μM
[24] = target: T23, WNK3 (Homo sapiens, UniProt Q9BYP7); test: mobility shift assay
T23 construct: purchased Carna Biosciences

[25] = target: T24, CaMK2δ (Homo sapiens, UniProt Q13557); test: mobility shift assay
T24 construct: purchased Carna Biosciences

[26] = target: T25, PDGFRα(V561D) (Homo sapiens, UniProt P16234, V561D); test: mobility shift assay
T25 construct: purchased Carna Biosciences

[27] = target: T26, MARK2 (Homo sapiens, UniProt Q7KZI7); test: mobility shift assay
T26 construct: purchased Carna Biosciences

[28] = target: T27, TAOK2 (Homo sapiens, UniProt Q9UL54); test: mobility shift assay
T27 construct: purchased Carna Biosciences
T27 sequence (Q9UL54 whole entry): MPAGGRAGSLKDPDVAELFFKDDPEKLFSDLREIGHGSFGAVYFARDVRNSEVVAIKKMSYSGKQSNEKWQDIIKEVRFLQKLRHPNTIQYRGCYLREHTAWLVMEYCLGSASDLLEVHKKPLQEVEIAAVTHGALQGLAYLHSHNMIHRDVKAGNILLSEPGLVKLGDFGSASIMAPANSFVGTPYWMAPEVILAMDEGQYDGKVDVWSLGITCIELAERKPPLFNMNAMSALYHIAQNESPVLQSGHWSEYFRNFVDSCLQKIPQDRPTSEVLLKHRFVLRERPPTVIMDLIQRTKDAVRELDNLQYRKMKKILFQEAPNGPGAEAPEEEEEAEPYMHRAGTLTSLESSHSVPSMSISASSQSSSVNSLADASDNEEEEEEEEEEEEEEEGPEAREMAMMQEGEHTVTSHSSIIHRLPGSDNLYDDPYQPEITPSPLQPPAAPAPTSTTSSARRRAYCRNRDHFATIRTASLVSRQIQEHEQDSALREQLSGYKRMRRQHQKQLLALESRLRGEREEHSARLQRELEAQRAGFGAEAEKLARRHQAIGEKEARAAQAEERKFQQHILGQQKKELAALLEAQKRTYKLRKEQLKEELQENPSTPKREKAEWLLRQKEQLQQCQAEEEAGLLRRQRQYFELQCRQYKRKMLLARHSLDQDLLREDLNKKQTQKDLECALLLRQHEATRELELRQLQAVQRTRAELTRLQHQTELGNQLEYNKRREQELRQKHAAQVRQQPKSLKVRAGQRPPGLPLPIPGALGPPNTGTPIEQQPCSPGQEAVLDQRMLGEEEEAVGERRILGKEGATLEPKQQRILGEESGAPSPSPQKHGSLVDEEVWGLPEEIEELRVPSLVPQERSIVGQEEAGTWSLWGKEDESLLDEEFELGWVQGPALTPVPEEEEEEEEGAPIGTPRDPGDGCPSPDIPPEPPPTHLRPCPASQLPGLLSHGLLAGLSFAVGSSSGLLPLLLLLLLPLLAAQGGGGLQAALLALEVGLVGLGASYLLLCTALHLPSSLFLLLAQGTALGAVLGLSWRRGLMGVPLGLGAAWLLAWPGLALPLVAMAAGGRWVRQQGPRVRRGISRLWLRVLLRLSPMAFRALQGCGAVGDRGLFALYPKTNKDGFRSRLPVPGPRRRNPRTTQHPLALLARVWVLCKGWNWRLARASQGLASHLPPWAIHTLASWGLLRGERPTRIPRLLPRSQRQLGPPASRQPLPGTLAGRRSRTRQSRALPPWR

[29] = target: T28, KIT (Homo sapiens, UniProt P10721); test: mobility shift assay
T28 construct: purchased Carna Biosciences
T28 sequence (P10721 26-976): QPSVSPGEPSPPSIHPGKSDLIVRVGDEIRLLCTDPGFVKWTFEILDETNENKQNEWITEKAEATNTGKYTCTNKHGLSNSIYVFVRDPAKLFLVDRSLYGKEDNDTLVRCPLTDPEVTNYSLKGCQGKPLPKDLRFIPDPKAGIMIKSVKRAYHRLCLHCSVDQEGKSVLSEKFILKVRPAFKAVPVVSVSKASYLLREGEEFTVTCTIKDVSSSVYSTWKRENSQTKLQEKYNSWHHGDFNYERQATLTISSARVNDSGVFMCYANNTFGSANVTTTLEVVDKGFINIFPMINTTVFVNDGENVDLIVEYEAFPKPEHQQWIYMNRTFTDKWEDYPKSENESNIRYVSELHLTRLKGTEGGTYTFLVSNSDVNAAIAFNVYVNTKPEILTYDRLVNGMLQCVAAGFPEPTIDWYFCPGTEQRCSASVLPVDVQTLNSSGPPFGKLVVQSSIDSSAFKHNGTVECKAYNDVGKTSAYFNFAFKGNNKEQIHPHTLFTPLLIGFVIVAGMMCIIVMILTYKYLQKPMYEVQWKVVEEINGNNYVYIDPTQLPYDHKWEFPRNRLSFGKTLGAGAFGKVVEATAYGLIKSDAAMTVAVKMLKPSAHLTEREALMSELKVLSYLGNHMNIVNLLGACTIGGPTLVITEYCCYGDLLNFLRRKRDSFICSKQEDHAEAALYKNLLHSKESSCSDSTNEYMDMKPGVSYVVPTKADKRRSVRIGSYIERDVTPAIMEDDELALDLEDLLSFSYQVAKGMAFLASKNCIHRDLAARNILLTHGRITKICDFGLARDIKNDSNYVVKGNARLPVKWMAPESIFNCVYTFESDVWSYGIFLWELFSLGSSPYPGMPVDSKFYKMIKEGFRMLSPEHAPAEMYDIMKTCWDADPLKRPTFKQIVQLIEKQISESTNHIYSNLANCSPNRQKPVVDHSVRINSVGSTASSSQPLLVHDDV

[30] = target: T29, CKIα (Homo sapiens, UniProt P48729); test: mobility shift assay
T29 construct: purchased Carna Biosciences
T29 sequence (P48729 whole entry): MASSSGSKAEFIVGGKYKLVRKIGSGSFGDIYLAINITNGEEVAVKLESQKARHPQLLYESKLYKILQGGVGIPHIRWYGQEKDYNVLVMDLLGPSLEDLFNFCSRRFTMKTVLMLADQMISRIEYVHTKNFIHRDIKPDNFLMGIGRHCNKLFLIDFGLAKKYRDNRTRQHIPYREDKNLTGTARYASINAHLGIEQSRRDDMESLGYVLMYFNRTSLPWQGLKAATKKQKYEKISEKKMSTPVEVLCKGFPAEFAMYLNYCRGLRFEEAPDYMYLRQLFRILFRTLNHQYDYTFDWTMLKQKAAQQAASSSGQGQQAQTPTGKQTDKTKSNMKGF

[31] = target: T30, MET(Y1235D) (Homo sapiens, UniProt P08581, Y1235D); test: mobility shift assay
T30 construct: purchased Carna Biosciences

[32] = target: T31, ALK (Homo sapiens, UniProt Q9UM73); test: mobility shift assay
T31 construct: purchased Carna Biosciences

[33] = target: T32, PKCζ (Homo sapiens, UniProt Q05513); test: mobility shift assay
T32 construct: purchased Carna Biosciences

[34] = target: T33, BRSK1 (Homo sapiens, UniProt Q8TDC3); test: mobility shift assay
T33 construct: purchased Carna Biosciences

[35] = target: PIM2 (Homo sapiens, UniProt Q9P1W9); test: mobility shift assay
Sequence of PIM2 (Q9P1W9 whole entry): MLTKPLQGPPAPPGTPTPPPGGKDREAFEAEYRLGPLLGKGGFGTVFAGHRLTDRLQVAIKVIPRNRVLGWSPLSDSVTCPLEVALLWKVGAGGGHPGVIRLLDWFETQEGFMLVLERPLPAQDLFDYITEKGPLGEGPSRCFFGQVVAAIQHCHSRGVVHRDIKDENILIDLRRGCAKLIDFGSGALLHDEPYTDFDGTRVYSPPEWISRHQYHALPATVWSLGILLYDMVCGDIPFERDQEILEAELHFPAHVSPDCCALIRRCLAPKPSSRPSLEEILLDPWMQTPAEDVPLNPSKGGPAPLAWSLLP

[36] = target: T34, PKCδ (Homo sapiens, UniProt Q05655); test: mobility shift assay
T34 construct: purchased Carna Biosciences

[37] = target: T35, FTI1 (Homo sapiens, UniProt P17948); test: mobility shift assay
T35 construct: purchased Carna Biosciences

[38] = target: T36, KIT(D816E) (Homo sapiens, UniProt P10721, D816E); test: mobility shift assay
T36 construct: purchased Carna Biosciences
T36 sequence (P10721 26-976 D816E): as the sequence (P10721 26-976) above, with D791E counted along it

[39] = target: T37, HER2 (Homo sapiens, UniProt P04626); test: mobility shift assay
T37 construct: purchased Carna Biosciences
T37 sequence (P04626 23-1255): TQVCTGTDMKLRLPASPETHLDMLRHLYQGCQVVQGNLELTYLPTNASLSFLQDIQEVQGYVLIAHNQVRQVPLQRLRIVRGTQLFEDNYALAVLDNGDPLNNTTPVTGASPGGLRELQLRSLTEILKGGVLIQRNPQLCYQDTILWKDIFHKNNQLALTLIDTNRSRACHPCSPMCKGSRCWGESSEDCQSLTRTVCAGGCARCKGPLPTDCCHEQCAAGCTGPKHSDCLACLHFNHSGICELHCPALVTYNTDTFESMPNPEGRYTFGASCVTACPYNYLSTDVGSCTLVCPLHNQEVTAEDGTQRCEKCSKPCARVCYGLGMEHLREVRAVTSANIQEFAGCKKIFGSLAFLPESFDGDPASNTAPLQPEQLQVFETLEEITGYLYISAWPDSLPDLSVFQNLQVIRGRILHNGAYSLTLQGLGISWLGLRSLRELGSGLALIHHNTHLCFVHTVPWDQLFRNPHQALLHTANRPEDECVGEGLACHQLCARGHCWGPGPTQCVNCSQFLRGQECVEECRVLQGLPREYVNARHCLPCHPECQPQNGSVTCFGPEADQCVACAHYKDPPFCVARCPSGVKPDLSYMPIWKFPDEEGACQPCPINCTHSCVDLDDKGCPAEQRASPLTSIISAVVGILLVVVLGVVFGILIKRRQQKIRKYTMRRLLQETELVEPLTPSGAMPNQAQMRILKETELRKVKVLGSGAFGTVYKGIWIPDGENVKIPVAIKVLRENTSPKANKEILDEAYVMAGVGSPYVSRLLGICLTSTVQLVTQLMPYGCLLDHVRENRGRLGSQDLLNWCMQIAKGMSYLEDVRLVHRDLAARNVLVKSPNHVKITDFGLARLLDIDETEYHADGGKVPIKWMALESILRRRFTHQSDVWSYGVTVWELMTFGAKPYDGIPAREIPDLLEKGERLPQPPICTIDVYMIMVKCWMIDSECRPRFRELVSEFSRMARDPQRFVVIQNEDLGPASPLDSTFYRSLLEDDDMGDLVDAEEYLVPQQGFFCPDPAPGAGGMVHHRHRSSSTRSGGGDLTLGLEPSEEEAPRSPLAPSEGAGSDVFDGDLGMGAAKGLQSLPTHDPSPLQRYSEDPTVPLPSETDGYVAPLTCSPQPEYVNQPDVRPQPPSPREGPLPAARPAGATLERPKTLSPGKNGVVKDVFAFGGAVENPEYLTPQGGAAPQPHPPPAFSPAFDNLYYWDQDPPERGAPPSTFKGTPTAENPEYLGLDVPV

[40] = system: MAP2K4 Cascade; test: mobility shift assay; conditions: 10 μM
[41] = target: T38, p70S6Kβ (Homo sapiens, UniProt Q9UBS0); test: mobility shift assay
T38 construct: purchased Carna Biosciences

[42] = target: CDK4/CycD3 (Homo sapiens, UniProt P11802); test: mobility shift assay
Sequence of CDK4/CycD3 (P11802 whole entry): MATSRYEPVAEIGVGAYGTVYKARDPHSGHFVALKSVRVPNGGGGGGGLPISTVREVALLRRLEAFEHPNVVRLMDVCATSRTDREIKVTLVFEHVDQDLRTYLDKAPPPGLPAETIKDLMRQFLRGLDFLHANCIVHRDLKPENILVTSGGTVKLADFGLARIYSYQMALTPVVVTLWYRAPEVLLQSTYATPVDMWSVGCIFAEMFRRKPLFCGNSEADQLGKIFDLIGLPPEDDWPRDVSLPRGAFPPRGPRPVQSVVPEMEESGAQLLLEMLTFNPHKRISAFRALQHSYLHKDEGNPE
Sequence of CDK4/CycD3 (P30281 whole entry partner): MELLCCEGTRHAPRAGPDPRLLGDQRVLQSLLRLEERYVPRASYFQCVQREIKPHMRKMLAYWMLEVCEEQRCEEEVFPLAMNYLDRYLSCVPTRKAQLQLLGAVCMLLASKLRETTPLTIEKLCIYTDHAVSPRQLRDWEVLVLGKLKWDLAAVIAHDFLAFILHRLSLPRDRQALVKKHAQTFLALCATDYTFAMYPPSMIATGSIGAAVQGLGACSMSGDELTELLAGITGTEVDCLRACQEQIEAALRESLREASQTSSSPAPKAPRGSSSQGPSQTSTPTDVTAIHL

C[C@@H]1CC[C@H]2C(C)(C)CCC[C@]2(C)c2c1oc1c(C=O)c(O)c(O)cc21 [LG-1, liphagal]
inhibition at 10 µM [1]: -1.5%
inhibition at 10 µM [2]: -3.6%
inhibition at 10 µM [3]: 1.4%
inhibition at 10 µM [4]: 7.4%
inhibition at 10 µM [5]: -3.5%
inhibition at 10 µM [6]: 9.7%
inhibition at 10 µM [7]: 34.4%
inhibition at 10 µM [8]: -0.9%
inhibition at 10 µM [9]: 13.9%
inhibition at 10 µM [10]: 13.8%
inhibition at 10 µM [11]: 21.6%
inhibition at 10 µM [12]: -4.4%
inhibition at 10 µM [13]: 62.7%
inhibition at 10 µM [14]: -3.8%
inhibition at 10 µM [15]: 26.5%
inhibition at 10 µM [16]: -6.6%
inhibition at 10 µM [17]: 12.1%
inhibition at 10 µM [18]: -1.2%
inhibition at 10 µM [19]: 5%
inhibition at 10 µM [20]: 9.3%
inhibition at 10 µM [21]: 12.4%
inhibition at 10 µM [22]: 29.4%
% Inhibition [23]: −3.3%
inhibition at 10 µM [24]: 19%
inhibition at 10 µM [25]: 7.7%
inhibition at 10 µM [26]: 7.1%
inhibition at 10 µM [27]: 2.7%
inhibition at 10 µM [28]: 24.5%
inhibition at 10 µM [29]: 6%
inhibition at 10 µM [30]: 20.5%
inhibition at 10 µM [31]: 5%
inhibition at 10 µM [32]: 9%
inhibition at 10 µM [33]: -7.2%
inhibition at 10 µM [34]: 9.2%
inhibition at 10 µM ([35]; PIM2): 63.5%
inhibitory activity against PIM2 ([35]; in words, 10 μM): potent inhibitory activity
inhibition at 10 µM [36]: 1.6%
inhibition at 10 µM [37]: 10.4%
inhibition at 10 µM [38]: 19.4%
inhibition at 10 µM [39]: -1.6%
% Inhibition [40]: 9.1%
inhibition at 10 µM [41]: 26.4%
inhibition at 10 µM ([42]; CDK4/CycD3): 63.4%
inhibitory activity against CDK4 ([42]; in words, 10 μM): Potent inhibitory activity
